Patent US4017607A
Converted amounts (≈) assume the structure as drawn. Read-outs that look alike come from different tables or passages of the source.

Assays:
[1] = tested on: Sarcina lutea; assay: Minimum inhibitory concentration, serial dilution method; format: cell-based; conditions: Micrococcus luteus; Sarcina lutea; 24 hours, 37° C; read-out: Minimum Inhibitory Concentration
[2] = tested on: Corynebacterium diphtheriae Type gravis; assay: as above; format: cell-based; conditions: Corynebacterium diphtheriae Type gravis; 24 hours, 37° C; read-out: Minimum Inhibitory Concentration
[3] = tested on: Bacillus anthracis No. 119; assay: microbe, parasite or virus in culture; format: cell-based; conditions: NO.119, 24 h, read-out: Minimum Inhibitory Concentration
[4] = tested on: Staphylococcus albus 1200A; assay: Minimum inhibitory concentration, serial dilution method; format: cell-based; conditions: read-out: Minimum Inhibitory Concentration
[5] = tested on: Diplococcus pneumoniae Type I; assay: as above; format: cell-based; conditions: Streptococcus pneumoniae; Diplococcus pneumoniae Type I; 24 hours, 37° C; read-out: Minimum Inhibitory Concentration
[6] = tested on: Staphylococcus aureus Smith; assay: as above; format: cell-based; conditions: Staphylococcus aureus Smith; 24 hours, 37° C; read-out: Minimum Inhibitory Concentration
[7] = tested on: Streptococcus hemolyticus Cook; assay: as above; format: cell-based; conditions: Streptococcus pyogenes; Streptococcus hemolyticus Cook; 24 hours, 37° C; read-out: Minimum Inhibitory Concentration
[8] = tested on: Diplococcus pneumoniae Type III; assay: as above; format: cell-based; conditions: Streptococcus pneumoniae; Diplococcus pneumoniae Type III; 24 hours, 37° C; read-out: Minimum Inhibitory Concentration
[9] = tested on: Bacillus subtilis PCI 219; assay: as above; format: cell-based; conditions: PCI219; Bacillus subtilis PCI 219; 24 hours, 37° C; read-out: Minimum Inhibitory Concentration
[10] = tested on: Staphylococcus aureus 209P; assay: Minimum inhibitory concentration, serial dilution method, Brain Heart Infusion broth; format: cell-based; conditions: read-out: Minimum Inhibitory Concentration
[11] = tested on: Bacillus subtilis ATCC 6633; assay: Minimum inhibitory concentration, serial dilution method; format: cell-based; conditions: read-out: Minimum Inhibitory Concentration
[12] = tested on: Corynebacterium diphtheriae Type intermedius; assay: as above; format: cell-based; conditions: Corynebacterium diphtheriae Type intermedius; 24 hours, 37° C; read-out: Minimum Inhibitory Concentration
[13] = tested on: Staphylococcus aureus 209P; conditions: 7th day, 10 mice per group
[14] = tested on: Streptococcus hemolyticus D-90; assay: Minimum inhibitory concentration, serial dilution method; format: cell-based; conditions: Streptococcus pyogenes, D90; Streptococcus hemolyticus D-90; 24 hours, 37° C; read-out: Minimum Inhibitory Concentration
[15] = tested on: Streptococcus faecalis ATCC 8043; assay: as above; format: cell-based; conditions: Enterococcus faecalis, ATCC8043; Streptococcus faecalis ATCC 8043; 24 hours, 37° C; read-out: Minimum Inhibitory Concentration
[16] = tested on: Streptococcus pyogenes D-58; assay: as above; format: cell-based; conditions: D58; Streptococcus pyogenes D-58; 24 hours, 37° C; read-out: Minimum Inhibitory Concentration
[17] = tested on: Staphylococcus aureus Terajima; assay: as above; format: cell-based; conditions: Staphylococcus aureus Terajima; 24 hours, 37° C; read-out: Minimum Inhibitory Concentration
[18] = Staphylococcus albus 1200A, 24 hours, 37° C
[19] = Staphylococcus aureus 209P, 24 hours, 37° C
[20] = ATCC6633, Bacillus subtilis ATCC 6633, 24 hours, 37° C

**Q.** What does the source list for `CCC(=O)OC1CC(=O)OC(C)CC=CC=CC(OC(C)=O)C(C)CC(CC=O)C(OC2OC(C)C(OC3CC(C)(OC(=O)CC)C(OC(C)=O)C(C)O3)C(N(C)C)C2O)C1OC` (stereo not drawn) [Compound No. 1]?
**A.** MIC [1]: 0.09 mg/L (≈ 0.1 µM); MIC [2]: 0.19 mg/L (≈ 0.212 µM); MIC [3]: 0.78 mg/L (≈ 0.869 µM); MIC [4, 18]: 1.56 mg/L (≈ 1.74 µM); MIC [5]: 0.09 mg/L (≈ 0.1 µM); MIC [6]: 0.39 mg/L (≈ 0.434 µM); MIC [7]: 0.19 mg/L (≈ 0.212 µM); MIC [8]: 0.09 mg/L (≈ 0.1 µM); MIC [9]: 0.78 mg/L (≈ 0.869 µM); MIC [10, 19]: 1.56 mg/L (≈ 1.74 µM); MIC [11, 20]: 1.56 mg/L (≈ 1.74 µM); MIC [12]: 0.19 mg/L (≈ 0.212 µM); Rate of surviving mice in each group of mice ([13]; 100 mg/kg oral): 6/10; Rate of surviving mice in each group of mice ([13]; 200 mg/kg oral): 10/10; MIC [14]: 0.78 mg/L (≈ 0.869 µM); MIC [15]: 0.78 mg/L (≈ 0.869 µM); MIC [16]: 0.19 mg/L (≈ 0.212 µM); MIC [17]: 3.12 mg/L (≈ 3.47 µM)

**Q.** `CCC(=O)OC1CC(=O)OC(C)CC=CC=CC(OC(C)=O)C(C)CC(CC=O)C(OC2OC(C)C(OC3CC(C)(OC(C)=O)C(OC(=O)CC)C(C)O3)C(N(C)C)C2O)C1OC` (stereo not drawn) [Compound No. 2] was tested. Which MIC [1] did it give?
**A.** 0.09 mg/L (≈ 0.1 µM)

**Q.** And the MIC [2]?
**A.** 0.19 mg/L (≈ 0.212 µM)

**Q.** And the MIC [3]?
**A.** 0.78 mg/L (≈ 0.869 µM)

**Q.** What about the MIC [4, 18] of the same compound?
**A.** 1.56 mg/L (≈ 1.74 µM)

**Q.** And the MIC [5]?
**A.** 0.09 mg/L (≈ 0.1 µM)

**Q.** What about the MIC [6] of the same compound?
**A.** 0.39 mg/L (≈ 0.434 µM)

**Q.** What about the MIC [7] of the same compound?
**A.** 0.19 mg/L (≈ 0.212 µM)

**Q.** What about the MIC [8] of the same compound?
**A.** 0.09 mg/L (≈ 0.1 µM)

**Q.** And the MIC [9]?
**A.** 0.78 mg/L (≈ 0.869 µM)

**Q.** What about the MIC [10, 19] of the same compound?
**A.** 1.56 mg/L (≈ 1.74 µM)

**Q.** And the MIC [11, 20]?
**A.** 1.56 mg/L (≈ 1.74 µM)

**Q.** And the MIC [12]?
**A.** 0.19 mg/L (≈ 0.212 µM)

**Q.** What about the “Rate of surviving mice in each group of mice” value (“Rate of surviving mice” for short) ([13]; 100 mg/kg oral) of the same compound?
**A.** 8/10

**Q.** What about the “Rate of surviving mice” value ([13]; 200 mg/kg oral) of the same compound?
**A.** 10/10

**Q.** What about the MIC [14] of the same compound?
**A.** 0.78 mg/L (≈ 0.869 µM)

**Q.** What about the MIC [15] of the same compound?
**A.** 0.78 mg/L (≈ 0.869 µM)

**Q.** And the MIC [16]?
**A.** 0.19 mg/L (≈ 0.212 µM)

**Q.** What about the MIC [17] of the same compound?
**A.** 3.12 mg/L (≈ 3.47 µM)

**Q.** `CCC(=O)OC1CC(=O)OC(C)CC=CC=CC(OC(C)=O)C(C)CC(CC=O)C(OC2OC(C)C(OC3CC(C)(OC(=O)CC)C(OC(=O)C(C)C)C(C)O3)C(N(C)C)C2O)C1OC` (stereo not drawn) [Compound No. 3] was tested. Which MIC [1] did it give?
**A.** 0.09 mg/L (≈ 0.0972 µM)

**Q.** What about the MIC [2] of the same compound?
**A.** 0.19 mg/L (≈ 0.205 µM)

**Q.** What about the MIC [3] of the same compound?
**A.** 1.56 mg/L (≈ 1.68 µM)

**Q.** And the MIC ([4]; Staphylococcus, 1200A, 24 h)?
**A.** 1.56 mg/L (≈ 1.68 µM)

**Q.** And the MIC [5]?
**A.** 0.09 mg/L (≈ 0.0972 µM)

**Q.** What about the MIC [6] of the same compound?
**A.** 0.39 mg/L (≈ 0.421 µM)

**Q.** What about the MIC [7] of the same compound?
**A.** 1.9 mg/L (≈ 2.05 µM)

**Q.** And the MIC [8]?
**A.** 0.09 mg/L (≈ 0.0972 µM)

**Q.** And the MIC [9]?
**A.** 0.78 mg/L (≈ 0.842 µM)

**Q.** What about the MIC ([10]; Staphylococcus aureus, 209P, 24 h) of the same compound?
**A.** 1.56 mg/L (≈ 1.68 µM)

**Q.** What about the MIC ([11]; Bacillus subtilis, ATCC6633, 24 h) of the same compound?
**A.** 1.56 mg/L (≈ 1.68 µM)

**Q.** And the MIC [12]?
**A.** 0.19 mg/L (≈ 0.205 µM)

**Q.** And the “Rate of surviving mice” value ([13]; 100 mg/kg oral)?
**A.** 4/10

**Q.** What about the “Rate of surviving mice” value ([13]; 200 mg/kg oral) of the same compound?
**A.** 10/10

**Q.** And the MIC [14]?
**A.** 0.78 mg/L (≈ 0.842 µM)

**Q.** What about the MIC [15] of the same compound?
**A.** 0.78 mg/L (≈ 0.842 µM)

**Q.** And the MIC [16]?
**A.** 0.19 mg/L (≈ 0.205 µM)

**Q.** And the MIC [17]?
**A.** 3.12 mg/L (≈ 3.37 µM)
